We go through 9 compounds from US10781204B2, “TYK2 inhibitors and uses thereof” (Nimbus Lakshmi, Inc., priority 2015, dated 2020).

Bounds are passed on as bounds.

One assay addresses TYK2 (Homo sapiens (Human), UniProt P29597). Put plainly: Tyk2 radioactive kinase assay. It is filed as biochemical. Conditions: ATP 10 μM. The gist of the method: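 Recombinant human TYK2 (Invitrogen) was mixed with 20 μM peptide substrate in a buffer of 20 mM Hepes pH 7.5, 10 mM MgCl2, 1 mM EGTA, 0.02% Brij35, 0.02 mg/mL BSA, 0.1 mM […], 2 mM DTT and 1% DMSO, and compounds in DMSO were added. Adding ^33P-ATP (10 μM ATP) started the reaction, which ran 120 min at room temperature. Mixtures were then spotted onto P81 ion-exchange paper, washed thoroughly in 0.75% phosphoric acid, and counted for radioactivity.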

The next assay concerns the target JAK2 (Homo sapiens (Human), UniProt O60674). The assay is described as follows: JAK2 radioactive kinase assay. Format: biochemical. The conditions noted are these: ATP 10 μM. The gist of the method:
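Radiometric assay in Hepes pH 7.5, MgCl2, EGTA, Brij35, BSA, DTT, 1% DMSO, with 10 μM [33P]ATP, 120 min at room temp; P81 paper capture and counting. […]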

Assay [1] has as its system Tyk2-pSTAT4 (IL-12 induced pSTAT4). Put plainly: IL-12 induced pSTAT4 in human PBMC. Format: cell-based. Conditions: Homo sapiens, PBMC, 0.5 h, 1.7 ng/mL IL-12, 30 minutes. The gist of the method: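 pSTAT4 and total STAT4 quantified by MSD in cell lysates after 30 minutes of 1.7 ng/mL IL-12 stimulation. Beforehand, compound (0.1% DMSO final) sat 1 hr at 37 C on 200,000 thawed buffy-coat PBMC per well in serum-containing medium.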

The subject of assay [2] is JAK2-pSTAT5 (GM-CSF induced pSTAT5). Put plainly: GM-CSF induced pSTAT5 in human PBMC. It is filed as cell-based. Conditions: Homo sapiens, PBMC, 20 min, 5 ng/mL GM-CSF. The gist of the method: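 Thawed human PBMC, 200,000 per well in serum-containing medium, were preincubated 1 hr at 37 C with compound in 0.1% DMSO. GM-CSF at 5 ng/mL final was added for 20 minutes, then pSTAT5 and total STAT5 in lysates were measured by MSD immunoassay.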

Sequence of TYK2 (P29597 whole entry): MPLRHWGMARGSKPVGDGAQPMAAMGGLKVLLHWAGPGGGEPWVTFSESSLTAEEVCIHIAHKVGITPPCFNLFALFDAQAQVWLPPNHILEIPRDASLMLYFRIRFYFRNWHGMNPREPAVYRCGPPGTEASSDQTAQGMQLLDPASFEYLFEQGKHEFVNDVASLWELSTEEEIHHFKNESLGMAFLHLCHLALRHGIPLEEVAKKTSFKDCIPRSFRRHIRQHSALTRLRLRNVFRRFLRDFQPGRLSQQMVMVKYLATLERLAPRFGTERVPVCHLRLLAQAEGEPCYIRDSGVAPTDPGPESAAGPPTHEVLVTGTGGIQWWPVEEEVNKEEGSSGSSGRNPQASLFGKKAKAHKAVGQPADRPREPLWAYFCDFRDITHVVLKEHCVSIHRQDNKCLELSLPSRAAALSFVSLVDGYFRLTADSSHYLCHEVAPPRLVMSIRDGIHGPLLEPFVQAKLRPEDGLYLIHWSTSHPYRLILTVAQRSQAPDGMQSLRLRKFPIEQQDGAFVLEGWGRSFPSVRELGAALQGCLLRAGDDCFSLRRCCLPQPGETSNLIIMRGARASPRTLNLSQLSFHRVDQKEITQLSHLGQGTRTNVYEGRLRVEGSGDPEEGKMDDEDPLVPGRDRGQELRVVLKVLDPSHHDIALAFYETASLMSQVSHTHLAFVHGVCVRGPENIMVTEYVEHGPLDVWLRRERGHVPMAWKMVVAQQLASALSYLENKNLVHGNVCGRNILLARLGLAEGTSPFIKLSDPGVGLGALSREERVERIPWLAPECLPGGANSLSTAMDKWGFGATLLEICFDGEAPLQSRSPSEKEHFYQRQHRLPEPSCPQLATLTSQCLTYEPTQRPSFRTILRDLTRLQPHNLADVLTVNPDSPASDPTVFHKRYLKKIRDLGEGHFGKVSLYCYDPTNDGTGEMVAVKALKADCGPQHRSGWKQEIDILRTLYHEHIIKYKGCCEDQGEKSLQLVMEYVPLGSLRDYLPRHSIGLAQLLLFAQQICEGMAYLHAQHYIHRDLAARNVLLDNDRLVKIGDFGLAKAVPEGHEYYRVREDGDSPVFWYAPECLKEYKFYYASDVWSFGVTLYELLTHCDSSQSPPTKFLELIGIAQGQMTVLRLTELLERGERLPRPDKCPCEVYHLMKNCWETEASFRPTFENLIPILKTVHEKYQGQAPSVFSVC
Sequence of JAK2 (O60674 whole entry): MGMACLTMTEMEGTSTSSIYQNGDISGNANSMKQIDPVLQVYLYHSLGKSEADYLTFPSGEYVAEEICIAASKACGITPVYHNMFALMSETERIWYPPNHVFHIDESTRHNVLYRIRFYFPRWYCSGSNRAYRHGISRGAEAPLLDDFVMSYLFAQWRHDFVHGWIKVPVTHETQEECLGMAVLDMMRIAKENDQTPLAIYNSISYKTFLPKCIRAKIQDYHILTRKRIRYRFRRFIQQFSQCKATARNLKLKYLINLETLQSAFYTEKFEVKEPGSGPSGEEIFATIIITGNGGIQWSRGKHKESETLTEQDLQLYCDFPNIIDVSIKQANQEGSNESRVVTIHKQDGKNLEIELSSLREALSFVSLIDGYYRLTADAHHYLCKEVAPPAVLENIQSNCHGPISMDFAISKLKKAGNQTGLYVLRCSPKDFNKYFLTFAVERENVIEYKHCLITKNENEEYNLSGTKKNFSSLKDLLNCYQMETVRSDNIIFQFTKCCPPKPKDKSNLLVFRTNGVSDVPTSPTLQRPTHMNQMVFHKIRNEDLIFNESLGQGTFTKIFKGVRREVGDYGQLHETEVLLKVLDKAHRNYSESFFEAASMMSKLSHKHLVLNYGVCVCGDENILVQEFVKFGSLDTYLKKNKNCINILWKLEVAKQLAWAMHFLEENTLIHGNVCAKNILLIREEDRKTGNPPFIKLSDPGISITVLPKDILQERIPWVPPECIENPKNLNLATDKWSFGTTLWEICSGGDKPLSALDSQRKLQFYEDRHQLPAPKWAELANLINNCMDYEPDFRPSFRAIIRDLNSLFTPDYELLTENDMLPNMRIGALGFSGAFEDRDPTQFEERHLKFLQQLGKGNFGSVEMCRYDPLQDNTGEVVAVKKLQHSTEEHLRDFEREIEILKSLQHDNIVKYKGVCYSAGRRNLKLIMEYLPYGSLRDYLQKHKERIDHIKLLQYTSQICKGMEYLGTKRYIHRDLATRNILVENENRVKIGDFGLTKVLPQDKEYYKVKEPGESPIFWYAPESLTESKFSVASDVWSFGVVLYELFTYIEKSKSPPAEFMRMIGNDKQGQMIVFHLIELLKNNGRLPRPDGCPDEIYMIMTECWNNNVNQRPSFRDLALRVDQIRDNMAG

Turning to `N#Cc1cccc(F)c1-c1cc(-n2cc(F)c(N3CCC(O)C3)n2)c2c(n1)CNC2=O` (stereo not drawn) [I-185, 3-fluoro-2-(4-(4-fluoro-3-(3-hydroxypyrrolidin-1-yl)-1H-pyrazol-1-yl)-5-oxo-6,7-dihydro-5H-pyrrolo[3,4-b]pyridin-2-yl)benzonitrile], the Ki – broadly, the dissociation constant of the complex between target and ligand, obtained from inhibition or displacement – was in the range of 0.1 to 10 nM at TYK2 and 10 to 100 nM on JAK2. For the same compound, the EC50 in assay [1] and in assay [2] was 100 to 2000 nM throughout.
Regarding `N#Cc1cccc(F)c1-c1cc(-n2ccc(N3CCC[C@@](O)(C(F)(F)F)C3)n2)c2c(n1)CNC2=O` [I-89, (S)-3-fluoro-2-(4-(3-(3-hydroxy-3-(trifluoromethyl)piperidin-1-yl)-1H-pyrazol-1-yl)-5-oxo-6,7-dihydro-5H-pyrrolo[3,4-b]pyridin-2-yl)benzonitrile], the Ki at TYK2 is 0.1 to 10 nM; at JAK2, 10 to 100 nM. Moreover, the EC50 (commonly the concentration giving half of the maximal effect) is 100 to 2000 nM in assay [1] and above 2000 nM in assay [2].
For `CC(C)c1csc(-c2cc(-c3c(F)cccc3F)nc3c2C(=O)NC3)n1` [I-233, 2-(2,6-difluorophenyl)-4-(4-isopropylthiazol-2-yl)-6,7-dihydro-5H-pyrrolo[3,4-b]pyridin-5-one], in that order: 10 to 100 nM, at least 1000 nM, above 2000 nM and above 2000 nM.
For `N#Cc1cccc(F)c1-c1cc(-c2ccn(C(=O)N3CCOCC3)n2)c2c(n1)CNC2=O` [I-231, 3-fluoro-2-(4-(1-(morpholine-4-carbonyl)-1H-pyrazol-3-yl)-5-oxo-6,7-dihydro-5H-pyrrolo[3,4-b]pyridin-2-yl)benzonitrile], in that order: 10 to 100 nM, 100 to 1000 nM, above 2000 nM and above 2000 nM.
As for `N#Cc1cccc(F)c1-c1cc(-n2ccc(N3CCOC[C@@H]3CO)n2)c2c(n1)CNC2=O` [I-163, (S)-3-fluoro-2-(4-(3-(3-(hydroxymethyl)morpholino)-1H-pyrazol-1-yl)-5-oxo-6,7-dihydro-5H-pyrrolo[3,4-b]pyridin-2-yl)benzonitrile], the Ki on TYK2 and at JAK2 was 0.1 to 10 nM in each case. Besides, the EC50 in assay [1] and in assay [2] was 100 to 2000 nM in each case.
For `CCNC(=O)C1CCCN(c2ccn(-c3cc(-c4c(F)cccc4C#N)nc4c3C(=O)NC4)n2)C1` (stereo not drawn) [I-159, 1-(1-(2-(2-cyano-6-fluorophenyl)-5-oxo-6,7-dihydro-5H-pyrrolo[3,4-b]pyridin-4-yl)-1H-pyrazol-3-yl)-N-ethylpiperidine-3-carboxamide], the Ki on TYK2 lay within 0.1 to 10 nM; on JAK2 it was 10 to 100 nM. The figures for the EC50 in assay [1] and in assay [2] were 100 to 2000 nM and above 2000 nM, respectively.
For `CC1O[C@H]2CN(c3ccn(-c4cc(-c5c(F)cccc5C#N)nc5c4C(=O)NC5)n3)C[C@H]2O1` (stereo partly drawn) [I-161, 3-fluoro-2-(4-(3-((3aR,6aS)-2-methyltetrahydro-5H-[1,3]dioxolo-[4,5-c]pyrrol-5-yl)-1H-pyrazol-1-yl)-5-oxo-6,7-dihydro-5H-pyrrolo[3,4-b]pyridin-2-yl)benzonitrile], in that order: 0.1 to 10 nM, 10 to 100 nM, 100 to 2000 nM and 100 to 2000 nM.
For `N#Cc1cccc(F)c1-c1cc(-n2ccc(N3CC[C@@]4(CCNC4=O)C3)n2)c2c(n1)CNC2=O` [I-166, (S)-3-fluoro-2-(5-oxo-4-(3-(6-oxo-2,7-diazaspiro[4.4]nonan-2-yl)-1H-pyrazol-1-yl)-6,7-dihydro-5H-pyrrolo[3,4-b]pyridin-2-yl)benzonitrile], the values for the Ki at TYK2 and on JAK2 were 0.009 to 0.1 nM and 0.1 to 10 nM, respectively. Further, the EC50 in assay [1] and in assay [2] was 100 to 2000 nM each time.
For the compound `CC(=O)Nc1cnn(-c2cc(-c3c(F)cccc3C#N)nc3c2C(=O)NC3)c1` [I-177, N-(1-(2-(2-cyano-6-fluorophenyl)-5-oxo-6,7-dihydro-5H-pyrrolo[3,4-b]pyridin-4-yl)-1H-pyrazol-4-yl)acetamide], the Ki on TYK2 and at JAK2 was at least 1000 nM in each case. For the same compound, the EC50 in assay [1] was above 2000 nM; in assay [2], 100 to 2000 nM.
